Measurements taken from ChEMBL document CHEMBL4359937, “Design, synthesis and evaluation of 2-amino-imidazol-4-one derivatives as potent β-site amyloid precursor protein cleaving enzyme 1 (BACE-1) inhibitors” (Bioorg Med Chem Lett, 2019).

Key:
Beta-secretase 1 [1] = biological target: T1, Beta-secretase 1 (Homo sapiens, UniProt P56817); assay: Inhibition of human BACE1 (1 to 460 residues) expressed in baculovirus infected insect cells using Rh-EVNLDAEFK-quencher as substrate measured after 90 mins by FRET assay
Beta-secretase 1 [2] = biological target: T1, Beta-secretase 1; assay: Inhibition of human BACE1 (1 to 460 residues) expressed in baculovirus infected insect cells at 10 uM using Rh-EVNLDAEFK-quencher as substrate measured after 90 mins by FRET assay relative to control
[3] = 1-Octanol/water distribution coefficient, logP of compound at 60 ug/ml shaken for 30 mins and measured by ultraviolet spectrophotometry analysis; assay type: physicochemical

T1 sequence (P56817 whole entry, the tested form may be a part): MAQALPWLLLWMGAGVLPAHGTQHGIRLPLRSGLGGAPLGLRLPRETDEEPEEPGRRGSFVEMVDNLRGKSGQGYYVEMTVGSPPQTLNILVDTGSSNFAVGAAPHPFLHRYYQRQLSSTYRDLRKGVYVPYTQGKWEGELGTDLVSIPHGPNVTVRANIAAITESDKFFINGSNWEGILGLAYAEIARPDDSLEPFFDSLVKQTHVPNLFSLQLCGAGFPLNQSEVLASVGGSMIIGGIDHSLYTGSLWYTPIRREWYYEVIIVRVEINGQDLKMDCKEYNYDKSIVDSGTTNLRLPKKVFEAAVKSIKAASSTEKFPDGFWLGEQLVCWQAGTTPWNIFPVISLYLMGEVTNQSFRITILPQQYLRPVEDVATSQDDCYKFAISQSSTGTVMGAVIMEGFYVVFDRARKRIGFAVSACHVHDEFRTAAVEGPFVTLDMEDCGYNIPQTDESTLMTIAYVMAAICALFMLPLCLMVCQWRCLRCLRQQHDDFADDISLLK

| SMILES | IC50 (Beta-secretase 1 [1]) | inhibition (Beta-secretase 1 [2]) | logP at 0.5 h [3] |
| --- | --- | --- | --- |
| Cc1ccc(-c2cccc(C3(c4ccccc4)N=C(N)N(C)C3=O)c2)c(C)c1 (stereo unspecified) | > 10 µM | 40.9% | 2.51 |
| Cc1ccc(C)c(-c2cccc(C3(c4ccccc4)N=C(N)N(C)C3=O)c2)c1 (stereo unspecified) | > 10 µM | 42.1% | 2.52 |
| CCc1ccc(-c2cccc(C3(c4ccccc4)N=C(N)N(C)C3=O)c2)cc1 (stereo unspecified) | > 10 µM | 43.5% | 2.56 |
| CN1C(=O)C(c2ccccc2)(c2cccc(-c3cccc(-c4ccccc4)c3)c2)N=C1N (stereo unspecified) | > 10 µM | 20.5% | 3.14 |
| Cc1cccc(C)c1-c1cccc(C2(c3ccccc3)N=C(N)N(C)C2=O)c1 (stereo unspecified) | > 10 µM | 34.1% | 2.42 |
| Cc1cc(C)cc(-c2cccc(C3(c4ccccc4)N=C(N)N(C)C3=O)c2)c1 (stereo unspecified) | > 10 µM | 47.2% | 2.56 |
| CN1C(=O)C(c2ccccc2)(c2cccc(Br)c2)N=C1N (stereo unspecified) | > 10 µM | 33.1% | 2.04 |
| Cc1cc(C)c(-c2cccc(C3(c4ccccc4)N=C(N)N(C)C3=O)c2)c(C)c1 (stereo unspecified) | > 10 µM | 45.7% | 2.55 |
| CN1C(=O)C(c2ccccc2)(c2cccc(-c3ccc(OCc4ccccc4)cc3)c2)N=C1N (stereo unspecified) | > 10 µM | 37.7% | 2.99 |
| CN1C(=O)C(c2ccccc2)(c2cccc(-c3ccc(C(C)(C)C)cc3)c2)N=C1N (stereo unspecified) | > 10 µM | 34.2% | 3.1 |
| CN1C(=O)C(c2ccccc2)(c2ccccc2)N=C1N | – | 62.2% | 1.9 |
| CN1C(=O)C(c2ccccc2)(c2cccc(-c3ccc(-c4ccccc4)cc3)c2)N=C1N (stereo unspecified) | > 10 µM | 43.9% | 3.18 |

More lines, now with the values ahead:

| IC50 (Beta-secretase 1 [1]) | inhibition (Beta-secretase 1 [2]) | logP at 0.5 h [3] | SMILES |
| --- | --- | --- | --- |
| 0.456 µM | 87.7% | 2.34 | Cc1cc(F)ccc1-c1cccc(C2(c3ccccc3)N=C(N)N(C)C2=O)c1 (stereo unspecified) |
| 0.721 µM | 82.1% | 2.02 | COc1cccc(OC)c1-c1cccc(C2(c3ccccc3)N=C(N)N(C)C2=O)c1 (stereo unspecified) |
| 1.57 µM | 75.5% | 2.46 | COc1ccc(-c2cccc(C3(c4ccccc4)N=C(N)N(C)C3=O)c2)c(OC)c1 (stereo unspecified) |
| 0.22 µM | 94.7% | 2.72 | COc1cccc(-c2cccc(C3(c4ccccc4)N=C(N)N(C)C3=O)c2)c1F (stereo unspecified) |
| 0.328 µM | 92% | 2.35 | Cc1ccc(F)cc1-c1cccc(C2(c3ccccc3)N=C(N)N(C)C2=O)c1 (stereo unspecified) |
| 0.119 µM | 97.5% | 2.49 | COc1ccc(-c2cccc(C3(c4ccccc4)N=C(N)N(C)C3=O)c2)cc1OC (stereo unspecified) |
| 0.425 µM | 88.3% | 2.49 | Cc1ccc(-c2cccc(C3(c4ccccc4)N=C(N)N(C)C3=O)c2)cc1C (stereo unspecified) |
| 0.851 µM | 80.7% | 2.41 | COc1cc(OC)cc(-c2cccc(C3(c4ccccc4)N=C(N)N(C)C3=O)c2)c1 (stereo unspecified) |
| 0.195 µM | 95% | 2.54 | COc1ccc(OC)c(-c2cccc(C3(c4ccccc4)N=C(N)N(C)C3=O)c2)c1 (stereo unspecified) |
| 0.173 µM | 96% | 2.86 | COc1ccc(F)cc1-c1cccc(C2(c3ccccc3)N=C(N)N(C)C2=O)c1 (stereo unspecified) |
| 1.11 µM | 78.6% | 2.15 | COc1cccc(-c2cccc(C3(c4ccccc4)N=C(N)N(C)C3=O)c2)c1OC (stereo unspecified) |
| 0.141 µM | 97% | 2.97 | Cc1ccc(-c2cccc(C3(c4ccccc4)N=C(N)N(C)C3=O)c2)c(F)c1 (stereo unspecified) |
